Results from patent US20250145715A1, “B7-H3 TARGETING FUSION PROTEINS AND METHODS OF USE THEREOF” (GT Biopharma, Inc., priority 2021, published 2025).

Key:
RPMI-8226 cells = assay: IncuCyte Zoom NK cell killing of RPMI-8226; type: cell-based, human; conditions: E:T 4:1
Description: FIGS. 8A-8D illustrate the ability of peripheral blood NK cells with or without B7-H3-TriKE to kill myeloma cells in live imaging IncuCyte Zoom assays. FIG. 8A is a graph showing the effects with effector:target (E:T) ratios of 2:1 and 4:1 on H929 cells. FIG. 8B is a graph showing the effects with effector:target (E:T) ratios of 2:1 and 4:1 on MM1S cells. FIG. 8C is a graph showing the effects with effector:target (E:T) ratios of 2:1 and 4:1 on RPMI-8226 cells. FIG. 8D is a graph showing the effects with effector:target (E:T) ratios of 2:1 and 4:1 on U266 cells.
FIGS. 9A-9D illustrate the efficacy of B7-H3-TriKE with the proteasome inhibitor bortezomib (10 nM) and the immunomodulatory drug lenalidomide (5 μM). FIG. 9A is a graph showing the effect of the combination therapy on H929 cells after 48 hours. FIG. 9B is a graph showing the effect of the combination therapy on RPMI-8226 cells after 48 hours. FIG. 9C is a graph showing the effect of the combination therapy on MM1S cells after 48 hours. FIG. 9D is a graph showing the effect of the combination therapy on U266 cells after 48 hours.
The ability of peripheral blood NK cells with or without B7-H3-TriKE to kill myeloma cells was compared in live imaging IncuCyte Zoom assays with escalating doses of TriKE. Maximal killing occurred with 3 nM concentration.
The efficacy of B7-H3-TriKE with the proteasome inhibitor bortezomib (10 nM) and the immunomodulatory drug lenalidomide (5 μM) was also tested. Cytotoxicity curves were compared by repeated measures ANOVA and performed in triplicate.

[1] = Toxicity assessment, weights of NSG mice engrafted with NK cells; type: in vivo; conditions: irradiated NSG mice, 1 million NK cells, treated three weeks, weights tracked 90 days
Method: As illustrated in FIGS. 32A-32F, cam1615B7-H3 TriKE mediates anti-tumor activity in vivo. Determination of in vivo activity is a critical step for translation. However, prior to evaluating the ability of the cam1615B7-H3 TriKE to induce function against tumor the potential for toxicity was assessed. To do this NSG mice were irradiated, engrafted with 1 million NK cells, treated with nothing, IL-15, or cam1615B7-H3 for three weeks, and weights were tracked over the course of 90 days post initial treatment. […] This is not surprising given the low toxicity profile of IL-15 and the safety profile of B7-H3. […] In this model, human NK cells and human high grade serous MA-148-luc cells are injected into the peritoneal cavity of NSG mice.

[2] = system: NCI-H460 large cell lung cancer cells; assay: NK cell CD107a / IFNγ flow cytometry against NCI-H460; type: cell-based, human; conditions: normal donor and lung cancer patient samples, vs controls
Description: FIGS. 24A-24F illustrate that B7-H3 TriKE enhances NK cell function against lung tumor targets. FIG. 24A is a graph showing pooled analysis of proportion of NK cells from healthy donors expressing CD107a+ against A549(N=6) tumor targets. FIG. 24B is a graph showing pooled analysis of proportion of NK cells from healthy donors expressing IFNγ against A549(N=6) tumor targets. FIG. 24C is a graph showing pooled analysis of proportion of NK cells from healthy donors expressing CD107a+ against NCI-H322 (N=5) tumor targets. FIG. 24D is a graph showing pooled analysis of proportion of NK cells from healthy donors expressing IFNγ against NCI-H322 (N=5) tumor targets. FIG. 24E is a graph showing pooled proportion of NK cells from healthy donors (black bars) or lung cancer patients (white bars) expressing CD107a+ against NCI-H460 (N=7). FIG. 24F is a graph showing pooled proportion of NK cells from healthy donors (black bars) or lung cancer patients (white bars) expressing IFNγ against NCI-H460 (N=7). ** p<0.01, *** p<0.001, and **** p<0.0001.
ADCC was measured in a flow cytometry assay by evaluating degranulation via CD107a (lysosomal-associated membrane protein LAMP-1) and intracellular IFNγ production. […] Samples were washed and evaluated in an LSRII flow cytometer (BD Biosciences, San Jose, CA, USA). […]

Row | Substance | NK cell killing of RPMI-8226 (RPMI-8226 cells) | body weight vs controls [1] | NK cell function against NCI-H460 [2]
1 | B7-H3 TriKE: camelid nanobodies targeting CD16 and B7-H3 joined by IL-15 and two linkers; sequence table equates the name with cam1615B7-H3 | enhanced killing |  | 
2 | cam1615B7-H3: second-generation TriKE: humanized camelid anti-CD16 VHH, human wild-type IL-15, anti-B7-H3 mAb 376.96 scFv; SEQ ID NO:1 |  | no significant differences | strongly increased NK cell function
